# According to PMC11990158, “Synthetic Epoxyeicosatrienoic Acid Mimics Protect Mesangial Cells from Sorafenib-Induced Cell Death” (Molecules, 2025):
# Molecular target: T1, human soluble epoxide hydrolase (sEH) (Homo sapiens, UniProt P34913)
# T1 sequence (P34913 1-555): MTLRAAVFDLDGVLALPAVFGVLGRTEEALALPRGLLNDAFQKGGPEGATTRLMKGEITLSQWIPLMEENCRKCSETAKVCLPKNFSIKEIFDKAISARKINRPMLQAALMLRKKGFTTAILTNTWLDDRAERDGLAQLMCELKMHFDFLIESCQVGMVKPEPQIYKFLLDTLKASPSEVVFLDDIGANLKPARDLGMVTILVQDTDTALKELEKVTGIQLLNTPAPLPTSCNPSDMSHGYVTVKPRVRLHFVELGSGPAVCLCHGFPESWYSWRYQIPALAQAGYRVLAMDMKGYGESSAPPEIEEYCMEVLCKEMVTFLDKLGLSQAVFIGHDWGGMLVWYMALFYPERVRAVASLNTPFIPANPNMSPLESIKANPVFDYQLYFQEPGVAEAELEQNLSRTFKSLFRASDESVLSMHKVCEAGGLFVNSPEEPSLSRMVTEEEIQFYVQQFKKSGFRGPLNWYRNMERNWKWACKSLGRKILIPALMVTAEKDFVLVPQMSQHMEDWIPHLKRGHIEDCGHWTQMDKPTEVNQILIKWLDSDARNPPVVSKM
# Assay: Human sEH inhibition, fluorescent assay (MNPC substrate)
# Assay type: biochemical
# Conditions: not given
# Description: The inhibition potency of the compounds against the recombinant purified human and mouse sEH and human mEH were measured using sensitive fluorescent assays. The enzymes were diluted to the proper buffer and aliquoted in black 96-well plates. The enzymes were incubated with the inhibitors (0.4 < [I] < 50,000 nM) for 5 min at 37 °C before the introduction of the reporting substrate. For the sEH, nonfluorescent cyano(6-methoxy-naphthalen-2-yl)methyl trans-[(3-phenyloxiran-2-yl)methyl] carbonate MNPC was used as the reporting substrate at a final concentration of 5 μM [51]. For the mEH, cyano(6-methoxy-naphthalen-2-yl)methyl glycidyl carbonate (MNGC) was used at a final concentration of 5 µM. The formation of the product (6-methoxynaphthaldehyde) was measured ([…]) every 30 s for 10 min by a Molecular Device M-2 plate reader. All measurements were performed in triplicate. The inhibitory potency (IC50) was calculated by regression of at least four data points on both sides of the 50% mark.
row,SMILES,sEH inhibition (in words)
1,"CCCCCCCCCCCNC(=O)C(=O)NCCCCCC(=O)O [8b, 6-(2-Oxo-2-(undecylamino)acetamido)hexanoic Acid]",insignificant inhibitor of sEH

# Same assay, conditions: recombinant purified human sEH, 5 min preincubation at 37 °C, MNPC 5 µM; read-out: HsEH IC50
row,SMILES,IC50 [nM]
1,"CCCCCCCCCCNC(=O)NCCCCOCC(=O)O [7a, 2-(4-(3-Decylureido)butoxy)acetic Acid]",830
2,"CCCCCCCCCCCNC(=O)NCCCCOCC(=O)O [7b, 2-(4-(3-Undecylureido)butoxy)acetic Acid]",1800
3,"CCCCCCCCCCNC(=O)NC/C=C\COCC(=O)O [7c, (Z)-2-((4-(3-Decylureido)but-2-en-1-yl)oxy)acetic Acid]",2100
4,"CCCCCCCC/C=C\CNC(=O)NCCCCOCC(=O)O [7e, (Z)-2-(4-(3-(undec-2-en-1-yl)ureido)butoxy)acetic Acid]",1600
5,"CCCCCCCC/C=C\CNC(=O)NC/C=C\COCC(=O)O [7f, 2-(((Z)-4-(3-((Z)-undec-2-en-1-yl)ureido)but-2-en-1-yl)oxy)acetic Acid]",2600
6,"CCCCCCCCCCNC(=O)C(=O)NCCCCCC(=O)O [8a, 6-(2-(Decylamino)-2-oxoacetamido)hexanoic Acid]",51000
7,"CCCCCCCCCCCNC(=O)C(=O)NCCCCCC(=O)O [8b, 6-(2-Oxo-2-(undecylamino)acetamido)hexanoic Acid]",> 100000
8,"CCCCCCCCCNC(=O)C(=O)NCCCCCCC(=O)O [8c, 7-(2-(Nonylamino)-2-oxoacetamido)heptanoic Acid]",64000
9,"CCCCCCCCCCNC(=O)C(=O)NCCCCCCC(=O)O [8d, 7-(2-(Decylamino)-2-oxoacetamido)heptanoic Acid]",49000
10,"CCCCCCCC/C=C\CNC(=O)C(=O)NCCCCCC(=O)O [8e, (Z)-6-(2-Oxo-2-(undec-2-en-1-ylamino)acetamido)hexanoic Acid]",19000
11,"CCCCCCCCCCCC(=O)NCCCCCC(=O)O [9a, 6-Dodecanamidohexanoic Acid]",9600
12,"CCCCCCCCCCCCC(=O)NCCCCCC(=O)O [9b, 6-Tridecanamidohexanoic Acid]",6400
13,"CCCCCCCCCCCC(=O)NCCCCCCC(=O)O [9c, 7-Dodecanamidoheptanoic Acid]",2300
14,"CCCCCCCCCCCCC(=O)NCCCCCCC(=O)O [9d, 7-Tridecanamidoheptanoic Acid]",2400
15,"CCCCCCCCCCCNC(=O)CCCCCCC(=O)O [10a, 8-Oxo-8-(undecylamino)octanoic Acid]",3500
16,"CCCCCCCCCCCCNC(=O)CCCCCCC(=O)O [10b, 8-(Dodecylamino)-8-oxooctanoic Acid]",2700
17,"CCCCCCCCCCCNC(=O)CCCCCCCC(=O)O [10c, 9-Oxo-9-(undecylamino)nonanoic Acid]",900
18,"CCCCCCCC/C=C\CNC(=O)CCCCCCCC(=O)O [10d, (Z)-9-Oxo-9-(undec-2-en-1-ylamino)nonanoic Acid]",820

# Test system: human renal mesangial cells (HRMCs)
# Assay: WST-8 cell viability assay, protection against sorafenib-induced cell death
# Assay type: cell-based
# Conditions: sorafenib 10 µM alone, 48 h
# Description: Human renal mesangial cells (4200, ScienCell, Carlsbad, CA, USA) were cultured at 37 °C (in 5% CO2) in RPMI 1640 medium (Gibco™, LS11875093) containing 10% FBS, 100 U/mL of penicillin, and 0.1 mg/mL of streptomycin. The cells were subculture following the protocol of the manufacturer.
# WST assay: To evaluate the effect of 8,9-EET analogs and sorafenib on the viability of human renal mesangial cells, a 96-well TPP plate is seeded with cells, which are then allowed to adhere. Over the course of 24 h, they undergo serum starvation before being subject to one of five treatments: Control (no treatment), Sorafenib (10 µM), Sorafenib plus 8,9-EET analogs (1 µM, 3 µM or 10 µM). After 48 h incubation, a WST assay used to gain information on cell survival; we added 10 μL WST reagent per well and incubated for 2 h. WST-8 tetrazolium salt is reduced by cellular dehydrogenases to an orange formazan product that is soluble in tissue culture medium. The amount of formazan produced is directly proportional to the number of living cells and is measured by absorbance at 460 nm. The absorbance at 460 nm is determined using a Synergy 4 Microplate Reader.
row,SMILES,cells dying on sorafenib exposure
1,CNC(=O)c1cc(Oc2ccc(NC(=O)Nc3ccc(Cl)c(C(F)(F)F)c3)cc2)ccn1 [Sorafenib],around 90%

# Molecular target: T1, human soluble epoxide hydrolase (sEH)
# Assay: not given
# Conditions: cited from earlier work
row,SMILES,sEH inhibition (in words)
1,CNC(=O)c1cc(Oc2ccc(NC(=O)Nc3ccc(Cl)c(C(F)(F)F)c3)cc2)ccn1 [Sorafenib],potent sEH inhibitor
